Measurements: patent publication US7198782B2, “Method for the treatment of diabetes” (priority 1998, dated 2007)

How the values were obtained:
[1] = test system: secretion of gastric acid; assay: Inhibitory effect on the secretion of gastric acid in rats (Example 7); format: in vivo, rats (Wister line); conditions: peptide 10 μg/kg with gastrin 4 μg/kg, hypodermic injection, gastric juice pH 10 minutes later, control pH 3.2 / 3.1
Experimental: The inhibitory effect on the secretion of gastric acid was evaluated using rats (Wister line), by dissolving in physiological saline, the peptides synthesized in Example 6 and gastrin, a stimulator of gastric acid secretion, hypodermically injecting the previous solution, and measuring the secretion of gastric acid 10 minutes later. Gastrin was administered to obtain a dose of 4 μg/kg and the peptides of the invention were administered to obtain a dose of 10 μg/kg. The rats were immobilized on a fixator, their gastric juice was sampled by inserting a probe through the mouth into the stomach, and the pH was measured to evaluate the secretion of gastric acid. When the secretion of gastric acid was compared between the reference group with no substance administered and the administered group, the following was obtained for the inhibition on the secretion of gastric acid.

[2] = test system: BxPC-3 cells; assay: Stimulating effect on insulin secretion, BxPC-3 cells (Example 3); format: cell-based, human; conditions: supernatant of BxPC-3 cells, 0.01 mg/well, 24 hours; control 37.6
Experimental: BxPC-3 cells which are insulin producing cells derived from a human pancreas (source: Dainippon Pharmaceutical Co.,Ltd. ), were cultured in RPMI 1640 media containing 10% calf fetal serum, and grown with 5% carbon dioxide gas in a humidified incubator at 37° C. The cells were treated with trypsin prior to seeding with a density of 1×10^5/well; when they reached confluency, the peptide of the invention synthesized in Example 2, the peptides A and B, which are unrelated to the invention and whose activities are unknown, as well as a control (physiological saline) were added at 0.01 mg/well, and the cells were cultured for 24 hours. Then, the concentrations of insulin present in the supernatents were measured by colorimetry with an insulin assaying kit (source: Shibayagi Co.,Ltd.).

[3] = test system: HIT cells; assay: Stimulation of insulin production by insulin producing cells, HIT cells (Example 5); format: cell-based, hamster; conditions: for rate of stimulation for the production of insulin (%): HIT cells, 12 hours, no substance added = 100%
Experimental: (§1) HIT cells, which are insulin producing hamster pancreatic cells, and BxPC-3 cells, which are human pancreatic cells (source: Dai Nippon Seiyaku), were cultured in RPMI 1640 media (source: Dai Nippon Seiyaku) containing 10% calf fetal serum, and grown with 5% carbon dioxide gas in a humidified incubator at 37° C. The cells were treated with trypsin for seeding 96-well culture plates with a density of 1×10^4/well; when the cells reached confluency, the media was exchanged to a F12 serum-free media and the cells were cultured for 8 hours. Then, the peptides of the invention produced in Example 4 were dissolved in serum-free RPMI 1640 media; various doses of the peptides indicated by the sequence number 1 for the HIT cells, and various doses of the peptides indicated by the sequence number 5 for the BxPC-3 cells, were added to the wells and the cultures were further maintained for 12 hours. After the cultures have been performed, the stimulatory effects of the peptides of the invention on the production of insulin by the cells were measured by the insulin immunoassay, to seek stimulatory effects on production in comparison to the non-treated groups. Also, the insulin immunoassay, and the calculations for the rates of stimulation for the production of insulin were actually performed as follows. Various dilutions of the supernatents from the cell culture media were added to the wells coated with immobilized anti-insulin antibodies, and reacted with anti-insulin antibody solutions, according to the protocol of the insulin assay kit commercialized by Shibayagi (Ltd.). The detection was by reacting the biotin labeling the antibodies with the steptavidin-conjugated peroxydase and measuring the coloration catalyzed by the peroxydase. The concentration of insulin was calculated from a standard curve for insulin. When examining the rates of stimulation for the production of insulin in the groups with various doses added, by taking the rate of stimulation for the production of insulin in the reference group with no substance added as 100%, the following was obtained.

[4] = test system: BxPC-3 cells; assay: Stimulation of insulin production by insulin producing cells, BxPC-3 cells (Example 5); format: cell-based, human; conditions: 12 hours, no substance added = 100%
Experimental: as §1

[5] = test system: GH3 cells; assay: Stimulation of growth hormone production by growth hormone producing cells (Example 9); format: cell-based, Hamster; conditions: 3 days, no peptides added = 100%
Experimental: Hamster-derived GH3 cells (source: IFO, deposition No. 50105), which are growth hormone-producing hypophyseal cells, were grown in an F12 media (source: Dai Nippon Seiyaku) containing 15% calf fetal serum, and grown with 5% carbon dioxide gas in a humidified incubator at 37° C. The cells were treated with trypsin for seeding 96-well culture plates with a density of 1×10^4/well; when the cells reached confluency, the media was exchanged to a 15% serum F12 media and the cells were cultured for 12 hours. Then, the peptides of the invention produced in Example 7 were dissolved in 15% serum F12 media to add various doses of the peptides to the wells, and the cultures were further maintained for 3 days. After the cultures have been performed, the stimulatory effects of the peptides on the production of growth hormones by the cells were measured by the growth hormone immunoassay, to examine stimulatory the effects on the production, in comparison with the non-treated groups. Also, the growth hormone immunoassay was performed with a method of the art, the sandwich ELISA, i.e., various dilutions of the supernatents from the cell culture media were added to wells coated with immobilized anti-growth hormone antibodies, and reacted for 180 minutes at room temperature, washed before further addition of anti-growth hormone antibodies labeled with peroxydase, and reacted for 60 minutes at room temperature. After washing, the coloring reaction catalyzed by the peroxydase was measured by measuring the absorbance. The concentration of growth hormone was examined based on standard curves obtained by performing the same sandwich ELISA using already known concentrations of growth hormone. When examining the rates of stimulation for the production of growth hormones in the groups with various doses added, by taking the rate of stimulation for the production of growth hormone for the reference group with no peptides added as 100%, the following was obtained.

Substance: Sequence No. 3: peptide predicted by comparing the cDNA sequences of the gastrin receptor; gastric acid secretion regulator (GGAGP; Artificial polypeptide which regulates insulin production.)
- Gastric juice pH [1]: 5.3 pH

Substance: Sequence No. 4: peptide predicted by comparing the cDNA sequences of the gastrin receptor; gastric acid secretion regulator (MSVGGNMLIIV; Artificial polypeptide having inhibitory effect on gastric acid secretion)
- Gastric juice pH [1]: 4.8 pH

Substance: peptide of the invention: peptide synthesized in Example 2, printed as having the amino acid sequence of sequence number 2 (GIP receptor derived insulin production regulator) (VGRDPAAAPALWRRRGTAPPLSAIVSQV; Artificial peptide which regulates insulin production)
- insulin concentration [2]: 148 µg/mL

Substance: sequence number 1: peptide of the missing (spliced) region predicted from glucagon receptor cDNAs; increases insulin production (PKAPSAQ; Artificial polypeptide which inhibits insulin production.)
- rate of stimulation for the production of insulin (%) ([3]; 0.01 μg/well): 102.8%
- rate of stimulation for the production of insulin (%) ([3]; 0.1 μg/well): 131.6%
- rate of stimulation for the production of insulin (%) ([3]; 1 μg/well): 184.9%
- rate of stimulation for the production of insulin (%) ([3]; 10 μg/well): 203.1%
- production of insulin by insulin producing cells ([3]; summary in the description, cells and dose not named): increased significantly

Substance: sequence number 5: peptide predicted from glucagon receptor cDNAs, variant of sequence number 1; increases insulin production (PQVPSAQ; Artificial polypeptide having inhibitory effects on insulin secretion)
- rate of stimulation for the production of insulin (%) ([4]; 0.01 μg/well): 110.9%
- rate of stimulation for the production of insulin (%) ([4]; 0.1 μg/well): 123.3%
- rate of stimulation for the production of insulin (%) ([4]; 1 μg/well): 198.2%
- rate of stimulation for the production of insulin (%) ([4]; 10 μg/well): 181.1%

Substance: sequence number 6: peptide predicted by comparing the amino acid sequences of somatostatin receptor; growth hormone production regulator (PSCQWVQAPACQ; Artificial polypeptide which promotes growth hormone secretion.)
- stimulation rate of growth hormone production (%) ([5]; 0.01 μg/well): 101.2%
- stimulation rate of growth hormone production (%) ([5]; 0.1 μg/well): 124.1%
- stimulation rate of growth hormone production (%) ([5]; 1 μg/well): 175.6%
- stimulation rate of growth hormone production (%) ([5]; 10 μg/well): 190.4%
